Results as given in ChEMBL document CHEMBL1201862, “PubChem BioAssay data set” (2004).
Active and inactive are the calls of the source.

How the values were obtained:
[1] = molecular target: 5-hydroxytryptamine receptor 5A (Homo sapiens, UniProt P47898); test: Counterscreen for agonists of OPRM1-OPRD1 heterodimerization: luminescence-based cell-based high throughput dose response assay to identify agonists of 5-hydroxytryptamine (serotonin) 5A receptor (HTR5A). [Related pubchem assays (depositor defined):AID504326, AID504355, AID504692, AID504904, AID504905]; type: functional
[2] = molecular target: T1, Short transient receptor potential channel 4 (Mus musculus, UniProt Q9QUQ5); test: mouse TRPC4 channel activators, dose response, cell-based, HEK293 TRPC4/mu-opioid, Fluo-4 calcium (AID 434937); type: functional
T1 sequence (Q9QUQ5 whole entry): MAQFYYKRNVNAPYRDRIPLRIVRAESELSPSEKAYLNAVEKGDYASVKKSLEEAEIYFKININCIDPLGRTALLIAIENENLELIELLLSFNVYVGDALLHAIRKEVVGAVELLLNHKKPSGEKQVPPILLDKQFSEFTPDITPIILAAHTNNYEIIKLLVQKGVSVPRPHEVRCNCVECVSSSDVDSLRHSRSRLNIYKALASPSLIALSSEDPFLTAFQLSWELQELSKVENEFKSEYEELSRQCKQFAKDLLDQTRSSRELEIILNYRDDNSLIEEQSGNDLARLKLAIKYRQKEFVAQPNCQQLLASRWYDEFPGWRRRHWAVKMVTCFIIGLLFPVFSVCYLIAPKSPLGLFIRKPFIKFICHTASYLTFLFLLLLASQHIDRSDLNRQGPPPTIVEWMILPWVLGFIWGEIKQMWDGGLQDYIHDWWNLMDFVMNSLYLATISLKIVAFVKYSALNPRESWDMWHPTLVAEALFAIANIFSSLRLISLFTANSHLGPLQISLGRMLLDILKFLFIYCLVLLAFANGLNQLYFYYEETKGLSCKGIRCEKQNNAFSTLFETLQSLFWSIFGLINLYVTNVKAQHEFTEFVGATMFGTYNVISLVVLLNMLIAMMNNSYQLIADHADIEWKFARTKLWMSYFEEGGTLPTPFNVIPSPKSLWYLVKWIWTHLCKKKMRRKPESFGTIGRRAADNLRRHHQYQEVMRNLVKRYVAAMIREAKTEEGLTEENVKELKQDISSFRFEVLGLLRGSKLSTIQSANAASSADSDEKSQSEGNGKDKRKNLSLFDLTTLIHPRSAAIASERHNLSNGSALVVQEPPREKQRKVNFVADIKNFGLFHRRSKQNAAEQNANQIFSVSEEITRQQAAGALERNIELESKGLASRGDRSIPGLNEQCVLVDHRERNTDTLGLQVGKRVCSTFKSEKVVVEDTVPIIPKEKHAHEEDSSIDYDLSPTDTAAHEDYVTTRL

[3] = molecular target: Mu-type opioid receptor (Homo sapiens, UniProt P35372); test: (§1) Counterscreen for agonists of heterodimerization of the mu 1 (OPRM1) and delta 1 (OPRD1) opioid receptors: Luminescence-based cell-based high throughput dose response assay to identify agonists of OPRM1 homodimerization.; type: functional
[4] = molecular target: Delta-type opioid receptor (Homo sapiens, UniProt P41143); test: as §1, with “of OPRD1” for “of OPRM1”, “homodimerization. [Related pubchem assays (depositor defined):AID504326, AID504355, AID504692, AID504904, AID504905]” for “homodimerization.”; type: functional
[5] = molecular target: T2, ORF 73 (Human herpesvirus 8, UniProt O40947); test: inhibitors of C-LANA binding to LBS DNA, dose response, biochemical, fluorescence polarization, cherry-picked samples (AID 504725); set-up: species or system Human gammaherpesvirus 8;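 further: fluorescence polarization of a labeled DNA duplex reporting LANA DNA binding; potency is for inhibitors that block LANA binding to the DNA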
T2 sequence (O40947 whole entry): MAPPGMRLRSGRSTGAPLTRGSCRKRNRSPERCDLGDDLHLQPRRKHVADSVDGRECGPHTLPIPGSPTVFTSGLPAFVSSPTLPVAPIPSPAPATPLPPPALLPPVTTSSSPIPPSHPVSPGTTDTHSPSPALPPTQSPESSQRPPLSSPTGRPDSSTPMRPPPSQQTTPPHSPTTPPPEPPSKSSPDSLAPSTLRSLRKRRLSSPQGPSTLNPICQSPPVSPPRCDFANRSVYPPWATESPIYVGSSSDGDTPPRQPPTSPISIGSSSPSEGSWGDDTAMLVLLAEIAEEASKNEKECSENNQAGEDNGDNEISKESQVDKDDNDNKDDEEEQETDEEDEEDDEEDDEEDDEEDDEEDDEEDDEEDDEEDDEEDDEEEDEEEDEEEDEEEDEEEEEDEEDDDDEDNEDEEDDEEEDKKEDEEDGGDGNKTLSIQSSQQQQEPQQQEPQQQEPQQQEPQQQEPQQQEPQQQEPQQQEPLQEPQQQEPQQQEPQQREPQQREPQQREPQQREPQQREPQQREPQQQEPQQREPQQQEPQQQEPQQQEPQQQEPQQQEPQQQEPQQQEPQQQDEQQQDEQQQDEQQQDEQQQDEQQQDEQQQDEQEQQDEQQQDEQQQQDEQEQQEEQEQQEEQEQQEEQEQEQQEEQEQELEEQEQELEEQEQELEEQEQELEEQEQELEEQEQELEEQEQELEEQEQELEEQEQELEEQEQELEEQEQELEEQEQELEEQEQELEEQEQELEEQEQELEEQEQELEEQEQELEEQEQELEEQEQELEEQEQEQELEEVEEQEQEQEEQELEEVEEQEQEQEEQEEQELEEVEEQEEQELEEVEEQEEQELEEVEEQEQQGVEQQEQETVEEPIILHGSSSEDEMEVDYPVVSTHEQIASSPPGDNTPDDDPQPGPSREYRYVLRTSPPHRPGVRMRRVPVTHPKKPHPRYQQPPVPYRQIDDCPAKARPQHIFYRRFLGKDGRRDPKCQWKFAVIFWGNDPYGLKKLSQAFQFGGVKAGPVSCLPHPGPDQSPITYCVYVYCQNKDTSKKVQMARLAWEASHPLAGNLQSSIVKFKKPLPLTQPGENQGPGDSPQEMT

[6] = molecular target: T3, Calpain-2 catalytic subunit (Sus scrofa, UniProt P43367); test: pig calpain II inhibitor potency, dose response, biochemical, fluorogenic peptide substrate (AID 1420); type: functional
T3 sequence (P43367 whole entry): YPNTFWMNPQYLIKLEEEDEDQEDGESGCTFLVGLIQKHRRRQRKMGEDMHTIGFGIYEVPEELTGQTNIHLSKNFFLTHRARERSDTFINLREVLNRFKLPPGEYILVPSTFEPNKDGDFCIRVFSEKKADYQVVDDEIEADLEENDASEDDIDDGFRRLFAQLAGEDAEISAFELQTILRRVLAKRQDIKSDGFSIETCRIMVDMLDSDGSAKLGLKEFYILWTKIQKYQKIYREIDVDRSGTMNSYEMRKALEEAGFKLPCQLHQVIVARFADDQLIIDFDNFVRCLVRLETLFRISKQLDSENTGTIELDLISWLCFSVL

[7] = cytotoxicity in OVCAR8 ovarian cancer cells, dose response, PAX8 project, cell-based, plate reader, dry powder samples (AID 743197); type: functional; settings: OVCAR-8
[8] = NIH:OVCAR-3 ovarian cancer cell cytotoxicity, dose response, PAX8 inhibitor project, plate reader, dry powder samples (AID 743044); type: functional, cell-based
[9] = molecular target: Paired box protein Pax-8 (Homo sapiens, UniProt Q06710); test: inhibitors of PAX8-driven TPO luciferase reporter, dose response, RMG-I cells, cherry-pick (AID 687027); type: functional, cell-based;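 further: luciferase reporter driven by Pax8 target thyroperoxidase promoter measured by SteadyGlo luminescence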
[10] = A549 cell cytotoxicity, dose response, cytotoxicity control, plate reader, cherry-pick, antagonist series (AID 743412); type: functional, cell-based
[11] = LGR2 antagonists, dose response, cell-based, HEK293, CRE-luciferase reporter, cherry pick, set 2 (AID 743343); type: functional;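 further: transfected cells were stimulated with diluted bursicon conditioned medium after compound addition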
[12] = test system: H9c2; test: cells; type: functional, cell-based; settings: Rattus norvegicus, H9c2, Myocardium;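 further: confirmatory concentration-response retest of ultra-high-throughput screening hits for modulation of myocardial damage; cell death induced by hydrogen peroxide oxidative stress; compound pretreatment for 60 min then peroxide exposure for 2 h; potency is for protecting the cells against peroxide damage rather than for killing them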
[13] = MC4R antagonists, dose response, counter-screen for LGR2 antagonist project, cell-based, plate reader, cherry pick (AID 743444); type: functional;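 further: transfected HEK 293 cells stimulated with alpha-MSH peptide; potency of inhibitors of the alpha-MSH evoked signal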
[14] = molecular target: T4, Bcl-2-related protein A1 (Mus musculus, UniProt Q07440); type: functional;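 further: confirmatory dose–response counterscreen on Bfl-1, used to check hits from a UBC13 polyubiquitin inhibitor campaign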
T4 sequence (Q07440 whole entry): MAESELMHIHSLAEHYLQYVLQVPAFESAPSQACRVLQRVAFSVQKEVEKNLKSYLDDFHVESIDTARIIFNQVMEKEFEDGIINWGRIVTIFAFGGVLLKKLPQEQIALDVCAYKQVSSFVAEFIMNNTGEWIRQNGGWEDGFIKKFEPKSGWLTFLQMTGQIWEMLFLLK

[15] = molecular target: T5, Ubiquitin-conjugating enzyme E2 N (Homo sapiens, UniProt P61088); type: functional
T5 sequence (P61088 whole entry): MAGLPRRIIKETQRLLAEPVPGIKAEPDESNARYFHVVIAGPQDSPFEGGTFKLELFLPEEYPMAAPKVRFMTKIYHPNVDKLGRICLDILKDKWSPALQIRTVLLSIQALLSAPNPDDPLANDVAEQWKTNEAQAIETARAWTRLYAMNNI

[16] = molecular target: T5, Ubiquitin-conjugating enzyme E2 N; type: functional; remark: listed apart in the source

Chain of Delta-type opioid receptor (P41143 whole entry): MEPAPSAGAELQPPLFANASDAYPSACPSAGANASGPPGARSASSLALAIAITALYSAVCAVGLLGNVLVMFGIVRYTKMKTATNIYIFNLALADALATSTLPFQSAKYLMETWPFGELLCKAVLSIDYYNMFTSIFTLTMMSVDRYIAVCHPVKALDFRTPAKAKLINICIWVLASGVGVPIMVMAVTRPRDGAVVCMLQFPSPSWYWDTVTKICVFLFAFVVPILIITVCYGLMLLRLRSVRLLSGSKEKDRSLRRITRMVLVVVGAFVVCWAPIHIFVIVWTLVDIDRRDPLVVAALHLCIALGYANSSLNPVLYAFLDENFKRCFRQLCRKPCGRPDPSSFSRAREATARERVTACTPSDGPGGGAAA
Chain of Mu-type opioid receptor (P35372 whole entry): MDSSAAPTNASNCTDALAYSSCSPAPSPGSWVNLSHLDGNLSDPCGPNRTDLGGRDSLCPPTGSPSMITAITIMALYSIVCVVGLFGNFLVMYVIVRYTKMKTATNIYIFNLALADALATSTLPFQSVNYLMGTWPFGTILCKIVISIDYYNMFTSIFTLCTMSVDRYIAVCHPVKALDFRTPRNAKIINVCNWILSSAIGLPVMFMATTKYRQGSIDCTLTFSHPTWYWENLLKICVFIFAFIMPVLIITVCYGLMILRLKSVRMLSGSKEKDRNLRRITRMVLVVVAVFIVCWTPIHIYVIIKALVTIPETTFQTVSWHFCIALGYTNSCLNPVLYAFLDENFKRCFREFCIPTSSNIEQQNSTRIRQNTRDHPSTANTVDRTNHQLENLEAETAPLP
Chain of 5-hydroxytryptamine receptor 5A (P47898 whole entry): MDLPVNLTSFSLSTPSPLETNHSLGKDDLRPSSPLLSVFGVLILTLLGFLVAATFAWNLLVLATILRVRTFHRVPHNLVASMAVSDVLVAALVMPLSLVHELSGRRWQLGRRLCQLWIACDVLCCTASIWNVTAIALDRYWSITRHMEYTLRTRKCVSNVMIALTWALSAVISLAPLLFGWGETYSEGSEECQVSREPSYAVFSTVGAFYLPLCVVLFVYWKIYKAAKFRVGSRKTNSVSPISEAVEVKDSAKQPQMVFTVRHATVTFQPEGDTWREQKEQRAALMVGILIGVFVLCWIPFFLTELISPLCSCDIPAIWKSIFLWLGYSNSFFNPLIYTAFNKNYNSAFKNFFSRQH
Chain of Paired box protein Pax-8 (Q06710 whole entry): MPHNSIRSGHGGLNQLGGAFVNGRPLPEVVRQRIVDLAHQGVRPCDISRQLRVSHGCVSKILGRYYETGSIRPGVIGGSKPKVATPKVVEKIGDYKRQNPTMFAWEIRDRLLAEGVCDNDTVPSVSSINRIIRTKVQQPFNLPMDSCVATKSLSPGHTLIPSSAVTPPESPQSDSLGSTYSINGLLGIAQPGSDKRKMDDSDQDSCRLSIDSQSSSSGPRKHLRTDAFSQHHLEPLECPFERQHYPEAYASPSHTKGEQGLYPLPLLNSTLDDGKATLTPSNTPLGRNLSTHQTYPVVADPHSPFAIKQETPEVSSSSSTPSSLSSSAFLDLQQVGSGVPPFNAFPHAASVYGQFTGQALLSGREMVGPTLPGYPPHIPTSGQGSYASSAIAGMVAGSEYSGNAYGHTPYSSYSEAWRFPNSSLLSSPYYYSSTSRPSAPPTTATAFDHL

Which EC50 [1] does the source give for `CCC(=O)C(CCN1CCOCC1)(c1ccccc1)c1ccccc1` here?
The EC50 was > 92.5 µM (inactive).

What about the EC50 [2] of the same compound?
Its EC50 is 0.376 µM (active).

And the EC50 [3]?
The EC50 was 12 µM (inactive).

What about the EC50 [4] of the same compound?
The EC50 was > 92.5 µM (inactive).

Which AC50 [5] does the source give for `Cc1cc(O)c2c(n1)c(C)cc1[nH]c(C)c(C)c12` here?
Its AC50 is 42.3 µM (active).

For `CN(C)C(CNC(C(=O)Nc1ccc([N+](=O)[O-])cc1Br)c1ccccc1)c1ccccc1` (centres undefined), which IC50 [6] is on record?
The IC50 was 4.94 µM (not active).

And the EC50 [1]?
Its EC50 is > 92.5 µM (inactive).

And the EC50 [3]?
The EC50 was > 92.5 µM (inactive).

What about the EC50 [4] of the same compound?
Its EC50 is > 92.5 µM (inactive).

With `COc1ccccc1C(=O)Nc1ccc2c(c1)C(=O)N(C)[C@@H]1CC[C@@H](CC(=O)NCc3ccc(Cl)c(Cl)c3)O[C@H]1CO2` as the compound, how does the AC50 [7] read?
Its AC50 is 55.9 µM (active).

And the AC50 [8]?
Its AC50 is 40.8 µM (active).

And the AC50 [9]?
The AC50 was 1.57 µM (active).

For `Cc1ccc(C)c(S(=O)(=O)N(C(=O)c2ccncc2)c2ccc(OC(=O)c3ccncc3)cc2)c1`, which AC50 [10] is on record?
Its AC50 is > 52 µM (inactive).

What about the AC50 [11] of the same compound?
Its AC50 is 4.05 µM (active).

What about the IC50 [12] of the same compound?
Its IC50 is > 79 µM (inactive).

What about the AC50 [13] of the same compound?
The AC50 was 1.9 µM (active).

For `Cc1nc(N)sc1C(=O)N/N=C/c1cccnc1`, which IC50 [14] is on record?
Its IC50 is > 20 µM (inactive).

And the IC50 [15]?
Its IC50 is 1.89 µM (active).

And the IC50 [16]?
The IC50 was 1.68 µM (active).
